In patent US20240216410A1, “METHODS AND COMPOSITIONS FOR TREATING CANCER THERAPY-INDUCED NEUTROPENIC FEVER AND/OR GVHD” (BOARD OF REGENTS, THE UNIVERSITY OF TEXAS SYSTEM, priority 2021, published 2024):

What was measured:
[1] = Murine GVHD model: colonic luminal carbohydrates by acid hydrolysis and IC-MS; format: in vivo; conditions: day 18; mice with GVHD
Text: BT is known to be a versatile utilizer of a variety of carbohydrate sources derived from the diet, including xylose via the xylose isomerase pathway, as well as host glycans. […] Host mucin glycans are particularly low on the metabolic hierarchy and are typically targeted only after other dietary polysaccharides have been depleted (43). […] Thus, in some embodiments, levels of soluble carbohydrates in the colonic lumen may be perturbed by meropenem treatment, given that it is shown herein that meropenem depletes the abundance of commensal Clostridia, which function to metabolize dietary fibers and starches (45). Using acid hydrolysis followed by ion chromatography-mass spectrometry (IC-MS), levels of monosaccharide subunits comprising soluble luminal polysaccharides were characterized in the colon of mice.
Carbohydrates analysis by IC-MS. To determine the relative abundance of carbohydrates in mouse feces samples, extracts were prepared and analyzed by ultra-HRMS. Fecal pellets were homogenized with a […]® Tissue Homogenizer. Metabolites were extracted using 1 mL ice-cold 80/20 (v/v) methanol/water. Extracts were centrifuged at 17,000 g for 5 min at 4° C., and supernatants were transferred to clean tubes, followed by evaporation to dryness under nitrogen. Dried extracts were reconstituted in deionized water, and 5 μL was injected for analysis by IC-MS. […]

[2] = test system: intestinal microbiota; experiment: Fecal bacterial density by 16S rRNA gene qPCR in normal mice given meropenem in drinking water; format: in vivo; conditions: 0.625 g/L meropenem in drinking water
Description: To further explore a potential causal relationship between meropenem and intestinal GVHD, the effects of meropenem on GVHD in a mouse model of allo-HSCT were examined. A method of administering meropenem to mice was first developed that would better mimic the effects of meropenem on the intestinal microbiome of patients, which is typically given every 8 hours intravenously. Previously, antibiotics were administered subcutaneously to mice (25), and meropenem concentrations were quantified in the cecal lumen of mice 4, 8, 24, 48 and 96 hours after subcutaneous injection. […] Next, drinking water was evaluated as a means of continuously administering meropenem to mice, using bacterial density quantified by 16S ribosomal RNA (16S rRNA) gene quantitative PCR (qPCR) to gauge reductions of the intestinal microbiota.
Quantification of fecal bacterial density. Genomic DNA was isolated from stool as described above. qPCR was performed as previously described (66). In brief, 16S rRNA gene sequences were amplified from total fecal DNA using the primers 926F (5′-[…]-3′, where K is a G or a T; SEQ ID NO:2) and 1062R (5′-[…]-3′, where R is an A or a G; SEQ ID NO:3). […] To determined bacterial density, a plasmid with a 16S rRNA gene of a murine Blautia isolate was generated in the pCR4 backbone and used as a standard.

[3] = test system: colonic mucus layer; experiment: Murine GVHD model: colonic mucus layer thickness (PAS staining); format: in vivo, mice; conditions: day 18; vs untreated GVHD mice and syngeneic mice
Description: Next, assessed was the impact of meropenem treatment on the dense colonic mucus layer of mice with GVHD.
Allo-HSCT recipient mice were treated with meropenem as in FIG. 15A and with xylose from days 13 to 20 (FIG. 18F). […] Importantly, in vitro, growth of mouse and human-derived BT in carbohydrate-poor media was augmented by xylose (FIG. 23B).
Xylose administration. D-(+)-xylose (X3877, SIGMA-ALDRICH®) was dissolved in phosphate buffer pH 8.0 with meropenem or in water without meropenem and given at a concentration of 0.5% from days 13 to 20 after allo-HSCT.
Histological and immunohistochemistry analysis. […] Pathology scores were quantified by a blinded pathologist. […] Sections were imaged using an APERIO® AT2.

SMILES: C[C@@H](O)[C@H]1C(=O)N2C(C(=O)O)=C(S[C@@H]3CN[C@H](C(=O)N(C)C)C3)[C@H](C)[C@H]12 [meropenem]
- concentrations of soluble luminal polysaccharide monosaccharide subunits [1]: significantly lower concentrations of arabinose- and xylose-derived polysaccharides
- reduction in fecal bacterial density [2]: substantial one-log reduction in fecal bacterial density
- colonic mucus layer thickness [3]: significantly thinned colonic mucus layer
